Data reported in patent US20230160016A1, “METHODS OF SELECTING A TREATMENT FOR CANCER PATIENTS” (NOVARTIS AG, priority 2017, published 2023).

Test system: HR-positive, HER2-negative, advanced breast cancer
Assay: MONALEESA-2: PFS subgroup analysis by 2-gene signature (CDKN2A and E2F3) score
Assay type: in vivo, human
Conditions: for Events: PFS events, median cut-off, both arms plus letrozole; for HR Across ARMCD: PFS, ribociclib arm vs PBO arm, both plus letrozole
Protocol: The patient population consisted of postmenopausal women with HR-positive, HER2-negative, advanced breast cancer, who had previously received no prior therapy for their advanced breast cancer.
Arm A: Ribociclib (600 mg once daily, days 1-21 of a 28-day cycle)+letrozole (2.5 mg once daily, days 1-28 of a 28-day cycle).
Arm B: Placebo (once daily, days 1-21 of a 28-day cycle)+letrozole (2.5 mg once daily days 1-28 of a 28-day cycle continuously).
PFS was defined as the time from the date of randomization to the date of first documented disease progression or death due to any cause. Discontinuation for non-RECIST progression was not counted as a PFS event. If a patient started other anti-neoplastic therapy or had two or more missing tumour assessments, PFS was censored at the last adequate tumour assessment, regardless of subsequent events.
A Cox Proportional Hazards model was fitted with treatment, liver/lung metastasis which is the study stratification factor, effects of the 16 genes, including CCNA2, CCND1, CCND2, CCND3, CCNE1, CDK2, CDK4, CDK6, CDKN1A, CDKN2A, CDKN2B, CDKN2C, E2F1, E2F3, RB1, and TFDP1, and gene by treatment interactions. […] A set of genes (CDKN2A and E2F3) with significant gene by treatment interactions in the model were identified through backward model selection. Signature scores of all samples were computed as the weighted sum of the gene expression values, where weights were the regression coefficients of respective gene by treatment interactions in the Cox Proportional Hazards model. Patients were classified into high and low subgroups using median signature score as the cut-off. Median PFS and hazard ratio together with 95% confidence intervals were computed for each patient subgroup.
Result: Using backward model selection, a 2-gene signature (CDKN2A and E2F3) was derived. FIG. 1Q and table 4 are subgroup analysis results, high- and low-gene signature expression groups are defined by median signature score as cut-off.

## Ribociclib
High 2-gene signature (CDKN2A and E2F3) score
  Events: 30
Low 2-gene signature (CDKN2A and E2F3) score
  Events: 28
High 2-gene signature score
  HR Across ARMCD: 0.73 (0.46-1.16)
Low 2-gene signature score
  HR Across ARMCD: 0.42 (0.26-0.66)
